# Data reported in PubChem BioAssay AID1845201 (Molecular Pharmacology Branch, DTP, NCI, 2023).
# Test system: COR L88 complex tumor spheroid viability
# Test: Anticancer human tumor COR L88 cell line growth inhibition;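 note: compound exposure lasted 7 days before viability readout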;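 for viability, T/C: percent of DMSO vehicle-treated spheroids = 100%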
# Conditions: for IC50: curve of first compound; for viability, T/C: stronger effect = lower value
# Source text: Multicellular complex tumor spheroid response to DNA repair inhibitors in combination with DNA-damaging drugs
# This study explores the anticancer activities of DNA-damaging drugs and inhibitors of DNA damage repair, both as single agents and in combinations. Complex tumor spheroids comprised of malignant cells, endothelial cells and mesenchymal stem cells served as an in vitro model for human solid tumors. This model system incorporates physiologically relevant features and patient-derived or established malignant cell lines with clinically relevant genetic alterations from many tumor types. Twenty-six patient-derived or established malignant cell lines were evaluated representing sarcoma, melanoma, small cell lung cancer (SCLC), non-small cell lung cancer (NSCLC), as well as bladder, ovarian and pancreatic cancers. The concentration ranges selected for each drug and investigational agent were based upon clinically achievable concentrations if the clinical Cmax of the agent was known.
# Compounds. The drugs and compounds olaparib (NSC753686), talazoparib (NSC767125), berzosertib (NSC777718), elimusertib (NSC800525), nedisertib (NSC802822), VX-984 (NSC792969), AZD-1390 (NSC803789), temozolomide (NSC362856), topotecan (NSC609699), trabectedin (NSC813783), staurosporine (NSC755774), and gemcitabine (NSC613327) were obtained from the National Cancer Institute (NCI) Developmental Therapeutics Program Chemical Repository. The FDA-approved anticancer drug set is available from the Developmental Therapeutics Program at https://dtp.cancer.gov/organization/dscb/obtaining/available_plates.htm. […] The stock solutions were prepared in dimethyl sulfoxide (DMSO, Sigma-Aldrich, St. Louis, MO, cat. D2650) at 400-fold the tested concentration and stored at -70 degrees C. Prior to their use, the stock solutions were diluted in fresh medium and the final DMSO concentration in the assay was 0.25% (v/v). All drugs and investigational agents were tested over a range starting from a high concentration at or near the clinical Cmax and decreasing in half-log increments. If the clinical Cmax for an agent had not been determined, the highest concentration tested was 10 microM.
# Cell Lines. The patient-derived cancer cell (PDC) lines: 156681-154-R-J1-PDC, 283228-195-R-J1-PDC, 287954-098-R-J1-PDC, 292921-168-R-J2-PDC, 349418-098-R-PDC, 425362-245-T-J1-PDC, 556581-035-R-J1-PDC, and BL0293-F563-PDC were received from the NCI Patient-Derived Models Repository (PDMR, https://pdmr.cancer.gov). The established cell lines HS-SY-2 (RRID:CVCL_8719), MPNST, and SYO-1 (RRID:CVCL_7146) were obtained from the Sloan Kettering Institute. The alveolar soft parts sarcoma cell line ASPS-1 (RRID:CVCL_S738) was established at the NCI and grown from internal seed stocks. The following established cell lines were purchased from the American Type Culture Collection (ATCC, Manassas, VA): G-401 (ATCC, cat. CRL-1441, RRID:CVCL_0270), SW982 (ATCC, cat. HTB-93, RRID:CVCL_1734), VA-ES-BJ (ATCC, cat. CRL-2138, RRID:CVCL_1785), NCI-H719 (ATCC, cat. CRL-5837, RRID:CVCL_1582), NCI-H196 (ATCC, cat. CRL-5823, RRID:CVCL_1509), NCI-H841 (ATCC, cat. CRL-5845, RRID:CVCL_1595), NCI-H1618 (ATCC, cat. CRL-5879, RRID:CVCL_1480), NCI-H1876 (ATCC, cat. CRL-5902, RRID:CVCL_1503), DMS 114 (ATCC, cat. CRL-2066; RRID:CVCL_1174), NCI-H211 (ATCC, cat. CRL-5824; RRID:CVCL_1529), and SW 1271 (ATCC, cat. CRL-2177, RRID:CVCL_1716). The small cell lung cancer cell line COR-L88 was purchased from Sigma-Aldrich (cat. 92031917-1VL, RRID:CVCL_1141). The non-small cell lung cancer cell lines NCI-H226 (RRID:CVCL_1544) and NCI-H322M (RRID:CVCL_1557) were established at the NCI and grown from internal seed stocks. Pooled donor human umbilical vein endothelial cells (HUVEC, Lonza, cat. CC-2519) and human mesenchymal stem cells (hMSC, Lonza, cat. PT-2501) were purchased from Lonza (Walkersville, MD).
# Cell Culture. All cells were maintained in an incubator at 37 degrees C and 5% CO2 with 95% humidity. […]
# [1] = second compound 0.003 µM, first compound 0.0316 µM
# [2] = second compound 0.003 µM, first compound 0.1 µM
# [3] = second compound 0.003 µM, first compound 0.316 µM
# [4] = second compound 0.003 µM, first compound 1 µM
# [5] = second compound 0.003 µM, first compound 3.16 µM
# [6] = second compound 0.003 µM, first compound 10 µM
# [7] = second compound 0.00949 µM, first compound 0.0316 µM
# [8] = second compound 0.00949 µM, first compound 0.1 µM
# [9] = second compound 0.00949 µM, first compound 0.316 µM
# [10] = second compound 0.00949 µM, first compound 1 µM
# [11] = second compound 0.00949 µM, first compound 3.16 µM
# [12] = second compound 0.00949 µM, first compound 10 µM
# [13] = second compound 0.03 µM, first compound 0.0316 µM
# [14] = second compound 0.03 µM, first compound 0.1 µM
# [15] = second compound 0.03 µM, first compound 0.316 µM
# [16] = second compound 0.03 µM, first compound 1 µM
# [17] = second compound 0.03 µM, first compound 3.16 µM
# [18] = second compound 0.03 µM, first compound 10 µM
# [19] = second compound 0.0949 µM, first compound 0.0316 µM
# [20] = second compound 0.0949 µM, first compound 0.1 µM
# [21] = second compound 0.0949 µM, first compound 0.316 µM
# [22] = second compound 0.0949 µM, first compound 1 µM
# [23] = second compound 0.0949 µM, first compound 3.16 µM
# [24] = second compound 0.0949 µM, first compound 10 µM
# [25] = second compound 0.3 µM, first compound 0.0316 µM
# [26] = second compound 0.3 µM, first compound 0.1 µM
# [27] = second compound 0.3 µM, first compound 0.316 µM
# [28] = second compound 0.3 µM, first compound 1 µM
# [29] = second compound 0.3 µM, first compound 3.16 µM
# [30] = second compound 0.3 µM, first compound 10 µM
Structure (SMILES),IC50 (second compound 0.003 µM),IC50 (second compound 0.00949 µM),IC50 (second compound 0.03 µM),IC50 (second compound 0.0949 µM),IC50 (second compound 0.3 µM),"viability, T/C [1]","viability, T/C [2]","viability, T/C [3]","viability, T/C [4]","viability, T/C [5]","viability, T/C [6]","viability, T/C [7]","viability, T/C [8]","viability, T/C [9]","viability, T/C [10]","viability, T/C [11]","viability, T/C [12]","viability, T/C [13]","viability, T/C [14]","viability, T/C [15]",other results
CC1COCCN1c1cc(-c2ccnn2C)c2ccnc(-c3ccn[nH]3)c2n1 (stereo not given) + CC[C@@]1(O)C(=O)OCc2c1cc1n(c2=O)Cc2cc3c(CN(C)C)c(O)ccc3nc2-1,150 nM,< 31.6 nM,< 31.6 nM,< 31.6 nM,< 31.6 nM,72.1%,53.5%,41.7%,25.8%,16.1%,4.41%,37.8%,35.5%,27.7%,17.1%,7.44%,3.34%,26.1%,23%,16.6%,"viability, T/C [16]: 10.1%; viability, T/C [17]: 5.31%; viability, T/C [18]: 2.97%; viability, T/C [19]: 15.2%; viability, T/C [20]: 12.2%; viability, T/C [21]: 8.67%; viability, T/C [22]: 5.76%; viability, T/C [23]: 2.87%; viability, T/C [24]: 1.98%; viability, T/C [25]: 6.79%; viability, T/C [26]: 6.02%; viability, T/C [27]: 5.21%; viability, T/C [28]: 3.2%; viability, T/C [29]: 1.82%; viability, T/C [30]: 1.1%"
COc1cc(C)[nH]c(=O)c1CN1CCc2c(Cl)cc(C(OC)C3COC3)c(Cl)c2C1=O (stereo not given) + CC[C@@]1(O)C(=O)OCc2c1cc1n(c2=O)Cc2cc3c(CN(C)C)c(O)ccc3nc2-1,> 10000 nM,> 10000 nM,< 31.6 nM,< 31.6 nM,< 31.6 nM,87%,90.9%,83.5%,85.4%,86.5%,75%,65.7%,53.2%,53.3%,50.9%,49%,52.7%,43.3%,44.3%,38.7%,"viability, T/C [16]: 39.2%; viability, T/C [17]: 35.5%; viability, T/C [18]: 17.1%; viability, T/C [19]: 46.2%; viability, T/C [20]: 43.8%; viability, T/C [21]: 41.2%; viability, T/C [22]: 45.5%; viability, T/C [23]: 38.2%; viability, T/C [24]: 19.1%; viability, T/C [25]: 47.6%; viability, T/C [26]: 46.1%; viability, T/C [27]: 41.2%; viability, T/C [28]: 42.8%; viability, T/C [29]: 41.2%; viability, T/C [30]: 37.5%"
Cc1cc(C)c(CNC(=O)c2cc(-c3ccc(CN4CCOCC4)cc3)cc3c2cnn3C2CCCC2)c(=O)[nH]1 + CC[C@@]1(O)C(=O)OCc2c1cc1n(c2=O)Cc2cc3c(CN(C)C)c(O)ccc3nc2-1,8330 nM,> 10000 nM,252 nM,44.1 nM,< 31.6 nM,87%,91.7%,90.4%,80.8%,73.1%,45.5%,76.9%,81.5%,83.8%,73%,60.3%,54.4%,52.4%,56.2%,47.1%,"viability, T/C [16]: 46.3%; viability, T/C [17]: 43%; viability, T/C [18]: 39.2%; viability, T/C [19]: 51.7%; viability, T/C [20]: 48.2%; viability, T/C [21]: 45.1%; viability, T/C [22]: 45.9%; viability, T/C [23]: 40.5%; viability, T/C [24]: 41.7%; viability, T/C [25]: 40.5%; viability, T/C [26]: 38.4%; viability, T/C [27]: 39%; viability, T/C [28]: 38.1%; viability, T/C [29]: 35.8%; viability, T/C [30]: 30.4%"
[2H]c1nc(C)nc([2H])c1-c1cc(NC[C@@H](C)c2cccc3c(C(=O)NC)ccnc23)ncn1 + CC[C@@]1(O)C(=O)OCc2c1cc1n(c2=O)Cc2cc3c(CN(C)C)c(O)ccc3nc2-1,> 10000 nM,> 10000 nM,2000 nM,1550 nM,8580 nM,99.2%,98.1%,103%,99%,101%,100%,68.6%,72.5%,83.1%,87.7%,85%,85.1%,56.6%,58.3%,52.1%,"viability, T/C [16]: 55.2%; viability, T/C [17]: 47.3%; viability, T/C [18]: 38.9%; viability, T/C [19]: 58.3%; viability, T/C [20]: 59.8%; viability, T/C [21]: 54.7%; viability, T/C [22]: 62.5%; viability, T/C [23]: 34.4%; viability, T/C [24]: 37%; viability, T/C [25]: 55.9%; viability, T/C [26]: 55.4%; viability, T/C [27]: 57.1%; viability, T/C [28]: 57.3%; viability, T/C [29]: 57.1%; viability, T/C [30]: 42.4%"
